# Experimental data as given in PubChem BioAssay (NCI).
#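 Where inhibition never reached the appropriate level, the endpoint shown equals the highest concentration tested. Otherwise, values were interpolated linearly from a five-concentration, 48-hour dose response in 96-well plates. At the GI50, growth is halved. The concentration for full growth arrest is given as TGI.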
# What was measured:
# Assay in all cases: NCI anticancer screen, dose series, 48 h
# SF-268 CNS = tested on: SF-268 CNS
# KM12 colon = tested on: KM12 colon
# UO-31 renal = tested on: UO-31 renal
# RPMI-8226 leukemia = tested on: RPMI-8226 leukemia
# CAKI-1 renal = tested on: CAKI-1 renal
# T-47D breast = tested on: T-47D breast
# HCC-2998 colon = tested on: HCC-2998 colon
# MDA-MB-231 breast = tested on: MDA-MB-231 breast
# BT-549 breast = tested on: BT-549 breast
# HS 578T breast = tested on: HS 578T breast
# SF-539 CNS = tested on: SF-539 CNS
# U251 CNS = tested on: U251 CNS
# DU-145 prostate = tested on: DU-145 prostate
# NCI-H226 lung = tested on: NCI-H226 lung
# SK-OV-3 ovarian = tested on: SK-OV-3 ovarian
# SNB-19 CNS = tested on: SNB-19 CNS
# HOP-62 NSCLC = tested on: HOP-62 NSCLC
# CCRF-CEM leukemia = tested on: CCRF-CEM leukemia
# NCI-H522 lung = tested on: NCI-H522 lung
# ACHN renal = tested on: ACHN renal
# A498 renal = tested on: A498 renal
# SK-MEL-28 melanoma = tested on: SK-MEL-28 melanoma
# SK-MEL-5 melanoma = tested on: SK-MEL-5 melanoma
# NCI-H460 lung = tested on: NCI-H460 lung
# IGROV1 ovarian = tested on: IGROV1 ovarian
# NCI/ADR-RES ovarian = tested on: NCI/ADR-RES ovarian
# HCT-116 colon = tested on: HCT-116 colon
# EKVX NSCLC = tested on: EKVX NSCLC
# MALME-3M melanoma = tested on: MALME-3M melanoma
# SF-295 CNS = tested on: SF-295 CNS
# SN12C renal = tested on: SN12C renal
# LOX IMVI melanoma = tested on: LOX IMVI melanoma
# A549 NSCLC = tested on: A549 NSCLC
# OVCAR-8 ovarian = tested on: OVCAR-8 ovarian
# TK-10 renal = tested on: TK-10 renal
# OVCAR-4 ovarian = tested on: OVCAR-4 ovarian
# SK-MEL-2 melanoma = tested on: SK-MEL-2 melanoma
# UACC-257 melanoma = tested on: UACC-257 melanoma
# HCT-15 colon = tested on: HCT-15 colon
# M14 melanoma = tested on: M14 melanoma
# UACC-62 melanoma = tested on: UACC-62 melanoma
# MCF7 breast = tested on: MCF7 breast
# HT29 colon = tested on: HT29 colon
# NCI-H23 lung = tested on: NCI-H23 lung
# RXF 393 renal = tested on: RXF 393 renal
# SW-620 colon = tested on: SW-620 colon
# OVCAR-5 ovarian = tested on: OVCAR-5 ovarian
# SNB-75 CNS = tested on: SNB-75 CNS
# 786-0 renal = tested on: 786-0 renal
# OVCAR-3 ovarian = tested on: OVCAR-3 ovarian
# SR leukemia = tested on: SR leukemia
# PC-3 prostate = tested on: PC-3 prostate
# MDA-MB-435 = tested on: MDA-MB-435
# MOLT-4 leukemia = tested on: MOLT-4 leukemia
# COLO 205 colon = tested on: COLO 205 colon
# K-562 leukemia = tested on: K-562 leukemia
structure (smiles),measurement,setting,value
CCCCC#Cc1c(I)n(C)c(=O)[nH]c1=O,GI50,SF-268 CNS,2680 nM
same,TGI,SF-268 CNS,7.64 µM
same,GI50,KM12 colon,16 µM
same,TGI,KM12 colon,29.5 µM
same,GI50,UO-31 renal,2590 nM
same,TGI,UO-31 renal,10.2 µM
same,GI50,RPMI-8226 leukemia,2370 nM
same,TGI,RPMI-8226 leukemia,8.41 µM
same,TGI,CAKI-1 renal,84.3 nM
same,GI50,T-47D breast,1700 nM
same,TGI,T-47D breast,6.96 µM
same,GI50,HCC-2998 colon,1580 nM
same,TGI,HCC-2998 colon,2930 nM
same,GI50,MDA-MB-231 breast,2060 nM
same,TGI,MDA-MB-231 breast,4.27 µM
same,GI50,BT-549 breast,1940 nM
same,TGI,BT-549 breast,4.55 µM
same,GI50,HS 578T breast,2610 nM
same,TGI,HS 578T breast,7.16 µM
same,GI50,SF-539 CNS,15.8 µM
same,TGI,SF-539 CNS,29.2 µM
same,GI50,U251 CNS,2420 nM
same,TGI,U251 CNS,6.85 µM
same,GI50,DU-145 prostate,4.42 µM
same,TGI,DU-145 prostate,15.4 µM
same,GI50,NCI-H226 lung,14.4 µM
same,TGI,NCI-H226 lung,27.4 µM
same,GI50,SK-OV-3 ovarian,20.3 µM
same,TGI,SK-OV-3 ovarian,34.6 µM
same,GI50,SNB-19 CNS,14.6 µM
same,TGI,SNB-19 CNS,29.1 µM
same,GI50,HOP-62 NSCLC,16.9 µM
same,TGI,HOP-62 NSCLC,31 µM
same,GI50,CCRF-CEM leukemia,1740 nM
same,TGI,CCRF-CEM leukemia,3.68 µM
same,GI50,NCI-H522 lung,1560 nM
same,TGI,NCI-H522 lung,3.25 µM
same,GI50,ACHN renal,1710 nM
same,TGI,ACHN renal,3.08 µM
same,GI50,A498 renal,18.7 µM
same,TGI,A498 renal,32.7 µM
same,GI50,SK-MEL-28 melanoma,1750 nM
same,TGI,SK-MEL-28 melanoma,3.13 µM
same,GI50,SK-MEL-5 melanoma,16.4 µM
same,TGI,SK-MEL-5 melanoma,30 µM
same,GI50,NCI-H460 lung,20.1 µM
same,TGI,NCI-H460 lung,39.7 µM
same,GI50,IGROV1 ovarian,1550 nM
same,TGI,IGROV1 ovarian,3.04 µM
same,GI50,NCI/ADR-RES ovarian,6.48 µM
same,TGI,NCI/ADR-RES ovarian,19.5 µM
same,GI50,HCT-116 colon,1700 nM
same,TGI,HCT-116 colon,3.07 µM
same,GI50,EKVX NSCLC,15.7 µM
same,TGI,EKVX NSCLC,29.1 µM
same,GI50,MALME-3M melanoma,1940 nM
same,TGI,MALME-3M melanoma,3.55 µM
same,GI50,SF-295 CNS,10.6 µM
same,TGI,SF-295 CNS,22.7 µM
same,GI50,SN12C renal,13.2 µM
same,TGI,SN12C renal,26.5 µM
same,GI50,LOX IMVI melanoma,1620 nM
same,TGI,LOX IMVI melanoma,2970 nM
same,GI50,A549 NSCLC,19.3 µM
same,TGI,A549 NSCLC,34.9 µM
same,GI50,OVCAR-8 ovarian,3.36 µM
same,TGI,OVCAR-8 ovarian,10.1 µM
same,GI50,TK-10 renal,4.76 µM
same,TGI,TK-10 renal,16 µM
same,GI50,OVCAR-4 ovarian,1760 nM
same,TGI,OVCAR-4 ovarian,3.15 µM
same,GI50,SK-MEL-2 melanoma,1930 nM
same,TGI,SK-MEL-2 melanoma,4.06 µM
same,GI50,UACC-257 melanoma,2460 nM
same,TGI,UACC-257 melanoma,5.5 µM
same,GI50,HCT-15 colon,1520 nM
same,TGI,HCT-15 colon,2870 nM
same,GI50,M14 melanoma,2130 nM
same,TGI,M14 melanoma,4.36 µM
same,GI50,UACC-62 melanoma,3.39 µM
same,TGI,UACC-62 melanoma,12.2 µM
same,GI50,MCF7 breast,9.6 µM
same,TGI,MCF7 breast,25.4 µM
same,GI50,HT29 colon,2270 nM
same,TGI,HT29 colon,5.08 µM
same,GI50,NCI-H23 lung,2140 nM
same,TGI,NCI-H23 lung,4.43 µM
same,GI50,RXF 393 renal,2600 nM
same,TGI,RXF 393 renal,5.91 µM
same,GI50,SW-620 colon,1660 nM
same,TGI,SW-620 colon,3.05 µM
same,GI50,OVCAR-5 ovarian,6.38 µM
same,TGI,OVCAR-5 ovarian,19.2 µM
same,GI50,SNB-75 CNS,12.3 µM
same,TGI,SNB-75 CNS,24.7 µM
same,GI50,786-0 renal,16.5 µM
same,TGI,786-0 renal,30.1 µM
same,GI50,OVCAR-3 ovarian,1540 nM
same,TGI,OVCAR-3 ovarian,2880 nM
same,GI50,SR leukemia,895 nM
same,TGI,SR leukemia,2090 nM
same,GI50,PC-3 prostate,12.8 µM
same,TGI,PC-3 prostate,25.4 µM
same,GI50,MDA-MB-435,1640 nM
same,TGI,MDA-MB-435,3.88 µM
same,GI50,MOLT-4 leukemia,2730 nM
same,TGI,MOLT-4 leukemia,13.9 µM
same,GI50,COLO 205 colon,1930 nM
same,TGI,COLO 205 colon,3.58 µM
same,GI50,K-562 leukemia,1820 nM
same,TGI,K-562 leukemia,3.46 µM
